Here are results for six molecules from patent US7317038B2, “Nerve regeneration promoters containing semaphorin inhibitor as the active ingredient” (Dainippon Sumitomo Pharma Co., Ltd., priority 2000, dated 2008).

Entries after “also recorded” stand apart in the source; their conditions may differ.

For data set [1], the target named is T1, mouse semaphorin 3A (Sema3A) (Mus musculus, UniProt O08665).
T1 sequence (O08665 21-772): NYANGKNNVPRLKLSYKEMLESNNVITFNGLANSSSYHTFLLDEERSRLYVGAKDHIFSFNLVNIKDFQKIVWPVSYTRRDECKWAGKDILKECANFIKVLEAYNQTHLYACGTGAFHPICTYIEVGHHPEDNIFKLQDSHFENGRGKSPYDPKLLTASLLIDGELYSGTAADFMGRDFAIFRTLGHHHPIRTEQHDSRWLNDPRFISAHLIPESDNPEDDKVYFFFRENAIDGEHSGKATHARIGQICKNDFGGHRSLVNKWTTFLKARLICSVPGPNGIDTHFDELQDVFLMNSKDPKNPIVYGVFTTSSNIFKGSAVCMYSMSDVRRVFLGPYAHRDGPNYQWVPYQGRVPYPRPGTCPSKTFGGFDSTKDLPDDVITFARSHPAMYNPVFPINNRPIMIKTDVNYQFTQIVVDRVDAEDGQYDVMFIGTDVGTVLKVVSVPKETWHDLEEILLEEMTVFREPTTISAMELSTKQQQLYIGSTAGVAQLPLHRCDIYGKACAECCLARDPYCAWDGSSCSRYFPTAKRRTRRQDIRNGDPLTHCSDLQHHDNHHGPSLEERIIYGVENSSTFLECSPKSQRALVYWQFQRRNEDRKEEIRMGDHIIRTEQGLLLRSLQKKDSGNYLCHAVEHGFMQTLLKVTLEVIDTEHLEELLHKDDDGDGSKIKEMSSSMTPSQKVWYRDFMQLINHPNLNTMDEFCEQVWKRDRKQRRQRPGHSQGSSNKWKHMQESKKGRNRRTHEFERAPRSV
The experiment in a line: Suppression of growth cone collapse activity of Sema3A (chick embryo dorsal root ganglions). It counts as cell-based. To be noted: for IC50: E7 chick embryo dorsal root ganglions, 2 units/ml Sema3A added 1 hour after compound, concentration where collapse rate = (A+B)/2, read-out: IC50 of inhibition of the growth cone collapse activity of Sema3A (converted). The method, then:
A 96-well plate (Sumitomo Bakelite Co., ltd. ) pre-coated with polylysine was further coated with laminine (20 μg/ml of laminine, for 1 hour at room temperature). Each well was added with 100 μl of medium (F12 medium containing 10% bovine fetal serum, 20 ng/ml of NGF, 100 units/ml of penicillin and 100 μg/ml of streptomycin) which media were then inoculated with dorsal root nerve ganglions excised from E7 (Embryonic day 7) chick embryo and were cultured for 16 to 20 hours under 5% CO2 and at 37° C. Subsequently, the object compounds were added to media at various concentrations and 2 units/ml of mouse semaphorin 3A (Sema3A) was added after cultivating for 1 hour. The cultures were further incubated for another 1 hour. Glutaraldehyde was quickly added therein after said 1 hour to make the final concentration 1%. The cultures were then left for 15 minutes at room temperature so that the tissue sections were fixed, and collapse rates of the growth cones were microscopically observed. A well with no addition of Sema3A was made the control.
The longitudinal and lateral axes in the figures represent the collapse rate of growth cones and the concentration of compounds, respectively. ●▪▴ show the results when Sema3A was added after the addition of the compounds and ◯[…]Δ show those when Sema3A was not added. Further, IC50 (μg/ml) of the inhibitors were determined by the method comprising: calculating the collapse rate of growth cone (A) % of the negative controls (neither compounds nor Sema3a was added); subsequently calculate the collapse rate of growth cone (B) % of the positive controls (compounds were not added but Sema3a was added); and the concentration was chosen for each compound from the chart where the collapse rate of growth cone met (A+B)/2(%), which was made IC50 level. The followings are the results.

The target in the next data set is T2, Sema3A (Mus musculus, UniProt O08665).
T2 construct: expressed in transfected cells; host or cells: COS7
T2 sequence (O08665 21-772): T1 sequence (O08665 21-772)
The experiment in a line: Collagen gel co-culture: suppression of neurite outgrowth inhibitory action of Sema3A. Format: cell-based. Also on record: key to suppression of neurite outgrowth inhibitory activity of Sema3A, score / inhibition of neurite outgrowth-inhibitory action of Sema3A, score: neurites outgrew in a complete concentric circular shape just like for the control groups where Sema3A-non-expressing COS7 cells were used, it was scored +++ (a strong inhibitory effect for Sema3A); outgrowth was found almost in a concentric circular shape accompanied with a little suppression of the outgrowth toward the direction of Sema3A-expressing COS cells, it was scored ++; outgrowth toward the direction of Sema3A-expressing COS cells is fairly suppressed to present a crescent shape, it was scored +; outgrowth toward the direction of Sema3A-expressing COS cells was not found at all (no inhibitory effect for Sema3A), it was scored −. To be noted: for inhibition of neurite outgrowth-inhibitory action of Sema3A, score: Example 16; for suppression of neurite outgrowth inhibitory activity of Sema3A, score: Example 5. The method, then: Whether the object compounds (SPF-3059-1, M162, A721) have persistent inhibitory action to Sema3A was analyzed by the collagen gel co-culture method (Neuroprotocols 4, 116, 1994) using Sema3A-expressing COS7 cell clumps and 7- or 8-day-old chick embryo dorsal root ganglions. The Sema3A-expressing COS7 cell clumps were generated as follows. 1 μg of Sema3A-expression plasmid was introduced into COS7 cells (100000 cells/35 mm culture plate), which were cultured overnight, with the FuGENE6 transfection reagent (Roche). 2.5 hours after the starting of the transfection, the COS7 cells were collected by trypsinization and centrifugation, and re-suspended in a medium of 200 μl. 20 μl of the cell suspension was placed on the lid of the culture plate (inside) and the lid was turned over, and then the suspension was cultivated for 20 hours (hanging drop culture) (Cell 78, 425, 1994). When the culture was over, aggregated COS7 cells (clump) were collected and trimmed to a diameter of 0.5 mm. The Sema3A-expressing COS7 cell clump and the above-mentioned dorsal root ganglions were placed in parallel at a distance of 0.5 to 1 mm in a 0.2% collagen gel which was then cultivated in a medium containing the aforementioned compounds at various concentrations for 2 days at 37° C. under 5% CO2. Glutaraldehyde was quickly added therein to make the final concentration 1%. The cultures were then left for 1 hour at room temperature so that the tissues were fixed, and the neurite outgrowth was microscopically observed. The results are found in FIG. 4.
When a medium not containing a subject compound was used, neurites were unable to grow towards the COS7 cell clump with the high concentration of Sema3A and grew only to the opposite direction.
In a similar way as in Example 4, suppression of the neurite outgrowth inhibitory activity was analyzed for the compounds, SPF-3059-1, SPF-3059-2 and SPF-3059-5. When the neurites outgrew in a complete concentric circular shape just like for the control groups where Sema3A-non-expressing COS7 cells were used, it was scored +++ (a strong inhibitory effect for Sema3A). When the outgrowth was found almost in a concentric circular shape accompanied with a little suppression of the outgrowth toward the direction of Sema3A-expressing COS cells, it was scored ++. […] When the outgrowth toward the direction of Sema3A-expressing COS cells was not found at all (no inhibitory effect for Sema3A), it was scored −.

For another data set, the system named is COS7 cells. The experiment in a line: Effect on cell proliferation (MTT). To be noted: Chlorocebus aethiops, COS-7, 48 h, two days, read-out: IC50, inhibitory rate for cell proliferation. Format: cell-based. The protocol: COS7 cells were seeded onto a 96-well plate (medium 100 μl/well) at 10000 cells per well. At the same time, SPF-3059-1 of various concentrations was added and the cells were cultivated for two days in the presence of 5% CO2 at 37° C. Each well was then added with 10 μl of MTT solution at 5 mg/ml and cultured for another one hour. Subsequently, the culture supernatant was removed and formazan (an MTT derivative produced in viable cells) accumulated in the cells was dissolved by the addition of 50 μl DMSO and then the absorbance at 570 nm was measured to determine the proliferation of COS7 cells. […] The longitudinal and lateral axes in the figure show cell proliferation and the SPF-3059-1 concentration, respectively. Besides, the standard deviation (n=4) was added to each column.
The same effect on cell proliferation as in Example 9 was examined for the compounds, SPF-3059-1, SPF-3059-2 and SPF-3059-5. The wells with these compounds were served as samples, the wells with PBS were served as control, and the wells for which the experiment was carried out without adding the cells was served as blank. IC50 (μg/ml), the inhibitory rate for cell proliferation, was determined, which is calculated by the equation shown below. The inhibitory rate for cell proliferation (%)=(1−(absorbance of a sample well−absorbance of the blank well)/(absorbance of the control well−absorbance of the blank well))×100

The nature of another data set: Solubility. Format: physicochemical.

For the molecule `CC(=O)c1c(C)c(C(=O)C2COc3cc(O)c(O)c(C(=O)O)c3C2=O)cc2c(=O)c3cc(O)c(O)cc3oc12` (centres unmarked) [SPF-3059-3], the IC50 in data set [1] was 374 nM; with COS7 cells, > 100 µg/mL. Further, at Sema3A (2 μg/ml compound), the “inhibition of neurite outgrowth-inhibitory action of Sema3A, score” value (“inhibition … score” for short) is “+++”. The Solubility entry is “Soluble” in “Solubility” (methanol, DMSO) and “Insoluble” in “Solubility” (water, hexane).

Consider `CC(=O)c1cc2c(=O)c3c(C(=O)O)cc(O)cc3oc2c(C(C)=O)c1-c1coc2cc(O)c(O)c(C(=O)O)c2c1=O` [SPF-3059-4], for which the IC50 in data set [1] is 3570 nM; in the data set with COS7 cells it was > 100 µg/mL. Moreover, the “inhibition … score” value is reported as “−” against Sema3A (2 μg/ml compound), “+” at Sema3A (6 μg/ml compound) and “++” on Sema3A (20 μg/ml compound). Besides, the Solubility result was “Soluble” in “Solubility” (methanol, DMSO) and “Insoluble” in the data set “Solubility” (water, hexane).

In the case of `CC(=O)c1cc2c(=O)c3c(C(=O)O)c(O)c(O)cc3oc2c(C(C)=O)c1-c1coc2cc(O)c(O)c(C(=O)O)c2c1=O` [SPF-3059-5], the IC50 in data set [1] was < 173 nM; with COS7 cells, > 300 µg/mL. Moreover, the “inhibition of growth cone collapse activity of Sema3A (in words)” value in data set [1] (chick embryo dorsal root ganglions) was “inhibit the growth cone collapse activities of Sema3A in a concentration-dependent manner; also recorded: potently inhibit semaphorin”. The figures for the “suppression of neurite outgrowth inhibitory activity of Sema3A, score” value at Sema3A (0.5 μg/ml compound), on Sema3A (1.0 μg/ml compound) and on Sema3A (2.0 μg/ml compound) were “+”, “++” and “++”, respectively. Also, on Sema3A (2 μg/ml compound), the “inhibition … score” value is reported as “++”. On Sema3A (collagen gel co-culture, 2 days), the “persistent inhibitory action to Sema3A (neurite outgrowth toward Sema3A-expressing COS7 cell clump)” value was “persistently inhibited the action of Sema3A”.

Regarding `COCc1c(-c2cc3c(=O)c4c(C(=O)O)c(O)c(O)cc4oc3c(C(C)=O)c2C)oc2cc(O)c(O)c(C(=O)O)c2c1=O` [SPF-3059-6], the IC50 is 169 nM in data set [1] and > 100 µg/mL with COS7 cells. For the same molecule, the entries for the “inhibition … score” value on Sema3A (2 μg/ml compound), against Sema3A (6 μg/ml compound) and on Sema3A (20 μg/ml compound) were “++”, “++” and “+++”, respectively. Moreover, the Solubility result in “Solubility” (methanol, DMSO) is “Soluble”; in the data set “Solubility” (water, hexane), “Insoluble”.

For the molecule `CC(=O)c1c(C)c(C(=O)C2COc3cc(O)c(O)c(C(=O)O)c3C2=O)cc2c(=O)c3c(C(=O)O)cc(O)cc3oc12` (centres unmarked) [SPF-3059-7], the IC50 in data set [1] is 1780 nM; in the data set with COS7 cells, > 100 µg/mL. In addition, the “inhibition … score” value on Sema3A (2 μg/ml compound) was “+”; against Sema3A (6 μg/ml compound) it was “+”; against Sema3A (20 μg/ml compound), “++”. The Solubility result is reported as “Soluble” in the data set “Solubility” (methanol, DMSO) and “Insoluble” in “Solubility” (water, hexane).

For the molecule `CC(=O)c1cc2c(=O)c3c(C(=O)O)c(O)c(O)cc3oc2c(C(C)=O)c1-c1coc2cc(O)cc(C(=O)O)c2c1=O` [SPF-3059-12], the IC50 is 3570 nM in data set [1] and > 100 µg/mL with COS7 cells. Moreover, the “inhibition … score” value at Sema3A (2 μg/ml compound) was “+”; against Sema3A (6 μg/ml compound), “+”; against Sema3A (20 μg/ml compound), “++”. For the same molecule, the Solubility entry in “Solubility” (methanol, DMSO) is reported as “Soluble”; in “Solubility” (water, hexane), “Insoluble”.
